From ChEMBL document CHEMBL2434902, “A new strategy to improve the metabolic stability of lactone: discovery of (20S,21S)-21-fluorocamptothecins as novel, hydrolytically stable topoisomerase I inhibitors” (J Med Chem, 2013)
Activity calls are given as the source filed them. The rule behind the calls is not given here.

Experiments:
[1] = system: HCT-116; assay: Cytotoxicity against human HCT116 cells after 72 hrs by MTT assay; type: functional, cell-based; settings: HCT-116, 72 h
[2] = system: MDA-MB-435; assay: Cytotoxicity against human MDA-MB-435 cells after 72 hrs by MTT assay; type: functional, cell-based; settings: MDA-MB-435, 72 h
[3] = system: A549; assay: Cytotoxicity against human A549 cells after 72 hrs by MTT assay; type: functional, cell-based; settings: A549, 72 h
[4] = target: DNA topoisomerase 2-alpha (Homo sapiens) (UniProt P11388); assay: Inhibition of topoisomerase2 alpha (unknown origin)-mediated supercoiled DNA relaxation at 100 uM after 30 mins by SDS-PAGE analysis
DNA topoisomerase 2-alpha (Homo sapiens), sequence (P11388 whole entry): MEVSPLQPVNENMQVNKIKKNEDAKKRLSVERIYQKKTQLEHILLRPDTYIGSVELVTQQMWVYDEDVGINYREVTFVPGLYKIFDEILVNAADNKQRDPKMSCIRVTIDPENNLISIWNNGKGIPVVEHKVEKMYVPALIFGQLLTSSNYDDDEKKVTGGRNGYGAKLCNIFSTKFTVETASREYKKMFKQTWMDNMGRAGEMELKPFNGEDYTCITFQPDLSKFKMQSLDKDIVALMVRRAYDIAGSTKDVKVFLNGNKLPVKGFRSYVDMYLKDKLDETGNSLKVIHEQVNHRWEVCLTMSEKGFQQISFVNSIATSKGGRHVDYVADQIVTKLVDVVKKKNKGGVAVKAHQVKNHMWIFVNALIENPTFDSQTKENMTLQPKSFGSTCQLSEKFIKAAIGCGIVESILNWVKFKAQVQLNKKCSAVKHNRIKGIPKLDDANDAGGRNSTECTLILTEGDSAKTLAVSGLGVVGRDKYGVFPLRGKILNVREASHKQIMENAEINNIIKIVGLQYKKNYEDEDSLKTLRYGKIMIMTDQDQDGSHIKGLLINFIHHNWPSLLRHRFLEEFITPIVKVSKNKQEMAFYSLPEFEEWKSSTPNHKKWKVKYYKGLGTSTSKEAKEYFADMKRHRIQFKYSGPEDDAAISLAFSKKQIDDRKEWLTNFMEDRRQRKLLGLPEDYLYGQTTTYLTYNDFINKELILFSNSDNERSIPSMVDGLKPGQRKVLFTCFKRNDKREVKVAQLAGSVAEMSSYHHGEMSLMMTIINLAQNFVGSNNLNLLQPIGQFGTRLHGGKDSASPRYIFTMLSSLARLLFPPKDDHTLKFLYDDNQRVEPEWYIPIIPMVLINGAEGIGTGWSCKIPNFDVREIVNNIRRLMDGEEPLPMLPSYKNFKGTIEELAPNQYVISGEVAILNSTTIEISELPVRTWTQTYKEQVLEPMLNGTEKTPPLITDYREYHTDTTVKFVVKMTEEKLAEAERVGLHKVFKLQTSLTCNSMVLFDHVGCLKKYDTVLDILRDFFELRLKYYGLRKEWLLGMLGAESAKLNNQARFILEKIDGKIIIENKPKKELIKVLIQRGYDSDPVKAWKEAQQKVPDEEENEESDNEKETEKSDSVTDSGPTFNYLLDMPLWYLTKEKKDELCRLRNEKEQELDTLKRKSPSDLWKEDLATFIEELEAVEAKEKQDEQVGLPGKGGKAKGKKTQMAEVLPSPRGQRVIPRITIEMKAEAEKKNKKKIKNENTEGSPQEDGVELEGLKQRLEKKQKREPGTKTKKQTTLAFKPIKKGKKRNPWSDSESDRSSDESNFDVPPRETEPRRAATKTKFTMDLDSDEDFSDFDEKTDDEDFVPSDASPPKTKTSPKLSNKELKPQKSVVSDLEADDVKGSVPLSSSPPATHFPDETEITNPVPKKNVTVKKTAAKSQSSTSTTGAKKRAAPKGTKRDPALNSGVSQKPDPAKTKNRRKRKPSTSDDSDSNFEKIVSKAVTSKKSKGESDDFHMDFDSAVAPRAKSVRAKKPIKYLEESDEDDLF

[5] = system: A549; assay: Induction of apoptosis in human A549 cells assessed as small, round floating cells at 10 uM after 48 hrs by immunostaining relative to control; type: functional, cell-based
[6] = target: T1, DNA topoisomerase 1 (Homo sapiens) (UniProt P11387); assay: Inhibition of topoisomerase1 (unknown origin)-mediated DNA cleavage at 100 uM after 15 mins by SDS-PAGE analysis
T1 sequence (whole entry): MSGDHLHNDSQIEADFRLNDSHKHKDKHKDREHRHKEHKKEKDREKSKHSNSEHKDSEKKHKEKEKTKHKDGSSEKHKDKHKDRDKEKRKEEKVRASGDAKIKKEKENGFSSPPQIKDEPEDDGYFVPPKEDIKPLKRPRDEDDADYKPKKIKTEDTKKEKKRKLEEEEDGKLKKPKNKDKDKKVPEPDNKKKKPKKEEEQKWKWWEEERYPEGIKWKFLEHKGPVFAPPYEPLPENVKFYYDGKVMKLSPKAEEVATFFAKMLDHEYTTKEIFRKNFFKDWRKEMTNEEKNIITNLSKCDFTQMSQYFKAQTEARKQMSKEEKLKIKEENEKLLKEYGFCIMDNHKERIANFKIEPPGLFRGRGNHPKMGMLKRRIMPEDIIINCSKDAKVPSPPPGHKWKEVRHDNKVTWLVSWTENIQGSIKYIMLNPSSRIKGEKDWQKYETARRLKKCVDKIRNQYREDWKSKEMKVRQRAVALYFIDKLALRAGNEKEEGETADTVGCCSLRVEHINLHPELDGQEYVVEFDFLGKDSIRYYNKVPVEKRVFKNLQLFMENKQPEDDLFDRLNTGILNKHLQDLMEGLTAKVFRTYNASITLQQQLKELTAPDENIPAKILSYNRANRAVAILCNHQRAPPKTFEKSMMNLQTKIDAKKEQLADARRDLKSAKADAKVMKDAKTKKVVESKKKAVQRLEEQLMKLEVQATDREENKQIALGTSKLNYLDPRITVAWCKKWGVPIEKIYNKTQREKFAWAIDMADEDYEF

[7] = system: A549; assay: Cell cycle arrest in human A549 cells assessed as decrease in G0/G1 phase at 10 uM after 36 hrs by propidium iodide staining-based flow cytometry; type: functional
[8] = system: A549; assay: Induction of apoptosis in human A549 cells assessed as apoptotic cells at 0.5 uM after 48 hrs by AnnexinV-FITC/propidium iodide staining-based flow cytometry (reference value: 5.23%); type: functional
[9] = system: A549; assay: Antitumor activity against human A549 cells xenografted in BALB/C nude mouse assessed as tumor growth inhibition at 4 mg/kg, ip administered for 5 days measured after day 30 to 33 relative to vehicle-treated control; type: functional; settings: route intraperitoneal, read-out: TGI
[10] = system: A549; assay: Antitumor activity against human A549 cells xenografted in ip dosed BALB/C nude mouse assessed as tumor growth inhibition administered for 5 days measured after day 30 to 33 relative to vehicle-treated control; type: functional, organism-based
[11] = system: A549; assay: Antitumor activity against human A549 cells xenografted in BALB/C nude mouse assessed as tumor growth inhibition at 2 mg/kg, ip administered for 5 days measured after day 30 to 33 relative to vehicle-treated control; type: functional; settings: route intraperitoneal, read-out: TGI
[12] = Stability of the compound in PBS buffer at pH 7.4; type: physicochemical
[13] = target: T1, DNA topoisomerase 1 (Homo sapiens); assay: Inhibition of topoisomerase1 (unknown origin)-mediated supercoiled DNA relaxation at 100 uM after 15 mins by SDS-PAGE analysis
[14] = system: A549; assay: Cell cycle arrest in human A549 cells assessed as accumulation at S phase at 10 uM after 36 hrs by propidium iodide staining-based flow cytometry; type: functional
[15] = system: Mus musculus; assay: Toxicity in BALB/C nude mouse xenografted with human A549 cells assessed as weight loss at 2 mg/kg, ip after 5 days relative to vehicle-treated control; type: organism-based; set-up: dose 2 mg/kg, route intraperitoneal; settings: in vivo, 120 h
[16] = system: A549; assay: Antitumor activity against human A549 cells xenografted in BALB/C nude mouse assessed as tumor growth inhibition at 0.5 mg/kg, ip administered for 5 days measured after day 30 to 33 relative to vehicle-treated control; type: functional, organism-based; set-up: dose 0.5 mg/kg
[17] = Stability of the compound in PBS buffer at pH 7.4 assessed as compound remaining after 6 hrs by HPLC method; type: physicochemical; settings: read-out: Stability

inhibition [13]	Compound	IC50 [1]	IC50 [2]	IC50 [3]	other results
–	CCc1c2c(nc3ccccc13)-c1cc3c(c(=O)n1C2)CO[C@@H](F)[C@]3(O)CC	8.53 µM	10.9 µM	12.7 µM	–
–	CCCc1c2c(nc3ccccc13)-c1cc3c(c(=O)n1C2)CO[C@@H](F)[C@]3(O)CC	0.82 µM	2.32 µM	2.54 µM	–
–	CC[C@@]1(O)C(=O)OCc2c1cc1n(c2=O)Cc2cc3c(CN(C)C)c(O)ccc3nc2-1 [TOPOTECAN]	–	–	–	TGI [16]: Active; Activity [15]: Toxic
Active	CCCCc1c2c(nc3ccccc13)-c1cc3c(c(=O)n1C2)CO[C@@H](F)[C@]3(O)CC	0.27 µM	3.53 µM	17.7 µM	–
Active	CC[C@]1(O)c2cc3n(c(=O)c2CO[C@H]1F)Cc1cc2c([N+](=O)[O-])cccc2nc1-3	1.02 µM	53 µM	11.3 µM	–
–	CC[C@]1(O)c2cc3n(c(=O)c2CO[C@H]1F)Cc1c-3nc2ccccc2c1C1CCCC1	19.8 µM	11.8 µM	4.14 µM	–
–	CC[C@]1(O)c2cc3n(c(=O)c2CO[C@H]1F)Cc1c-3nc2ccccc2c1C	1.46 µM	8.66 µM	4.23 µM	–
–	CC[C@]1(O)c2cc3n(c(=O)c2CO[C@H]1F)Cc1c-3nc2ccccc2c1C(C)C	65.7 µM	41.1 µM	> 100 µM	–
Active	CC[C@]1(O)c2cc3n(c(=O)c2CO[C@H]1F)Cc1cc2cc(OC)ccc2nc1-3	6.15 µM	> 100 µM	41.7 µM	–
Active	CC[C@]1(O)c2cc3n(c(=O)c2CO[C@@H]1F)Cc1cc2ccccc2nc1-3 [(20S,21R)-FLUOROCAMPTOTHECIN]	50.9 µM	> 100 µM	46.2 µM	–
–	CC[C@]1(O)c2cc3n(c(=O)c2CO[C@H]1F)Cc1c-3nc2ccccc2c1C1CCC1	95.4 µM	15.8 µM	1 µM	–
–	CCc1c2c(nc3ccc(OC)cc13)-c1cc3c(c(=O)n1C2)CO[C@@H](F)[C@]3(O)CC	1.45 µM	12.7 µM	6.35 µM	–
–	CC[C@@]1(O)C(=O)OCc2c1cc1n(c2=O)Cc2cc3ccccc3nc2-1 [CAMPTOTHECIN]	0.07 µM	< 0.001 µM	0.65 µM	remaining at 6 h [17]: 42.7%
–	CC[C@]1(O)c2cc3n(c(=O)c2CO[C@H]1F)Cc1c-3nc2ccccc2c1C1CC1	3.39 µM	9.41 µM	15.5 µM	–
Active	CC[C@]1(O)c2cc3n(c(=O)c2CO[C@H]1F)Cc1cc2ccccc2nc1-3 [(20S,21S)-FLUOROCAMPTOTHECIN]	6.35 µM	58.3 µM	9.95 µM	remaining at 6 h [17]: 96%

Compound	inhibition [13]	IC50 [1]	IC50 [2]	IC50 [3]	other results
CC[C@]1(O)c2cc3n(c(=O)c2CO[C@H]1F)Cc1c-3nc2ccccc2c1C1CCCCC1 [(20S,21S)-7-CYCLOHEXYLFLUOROCAMPTOTHECIN]	Active	0.07 µM	0.41 µM	0.71 µM	inhibition [4]: inactive; Activity [5]: Active; inhibition [6]: inactive; Activity [7]: Active; Activity [8]: 94.11%; inhibition in vivo at 4 mg/kg [9]: 63%; TGI [10]: Dose-dependent effect; inhibition in vivo at 2 mg/kg [11]: 34%; Stability [12]: Stable; Activity [14]: Active; Activity [15]: Non-toxic
